Data as given in patent US20230053540A1, “TREATMENT OF LIVER INJURY” (Massachusetts Institute of Technology, priority 2019, published 2023).

Test system: hepatocytes
Assay: Seq-Well scRNA-Seq of hepatocytes after APAP overdose (signature scores, DEG vs untreated)
Format: in vivo, mouse
Settings: A6 vs UT

In the case of `CC(=O)Nc1ccc(O)cc1` [APAP, acetaminophen], the “Plbd2 pct.1” value is reported as 0.344, the “Plcxd2 A6logFC” value is reported as −0.2752 and the “Plcxd2 avg_logFC” value is reported as −0.2752. For the same molecule, the “Plcxd2 pct.1” value was 0.162, the “Plec avg_logFC” value was 0.4675 and the “Plec pct.1” value was 0.422. For the same molecule, the “Plek avg_logFC” value was 0.3089, the “Plek pct.1” value was 0.11 and the “Plin2 avg_logFC” value was 1.461. The “Plin5 avg_logFC” value was 0.2963, the “Plin5 pct.1” value was 0.456 and the “Plscr1 avg_logFC” value was 0.4445. The “Pmpcb avg_logFC” value was −0.2636, the “Pmpcb pct.1” value was 0.356 and the “Pnkd A6logFC” value was −0.2928. For the same molecule, the “Pon1 avg_logFC” value was −0.6858, the “Ppan avg_logFC” value was 0.2724 and the “Ppan pct.1” value was 0.255. For the same molecule, the “Ppara avg_logFC” value was −0.2871, the “Ppara pct.1” value was 0.234 and the “Ppib avg_logFC” value was −0.5897. The “Ppip5k2 A6logFC” value was 0.3209, the “Ppip5k2 avg_logFC” value was 0.3209 and the “Ppip5k2 pct.1” value was 0.344. The “Ppl avg_logFC” value was 0.8798, the “Ppm1g A6logFC” value was 0.2522 and the “Ppm1g avg_logFC” value was 0.2522. The “Ppm1g pct.1” value was 0.358, the “Ppm1k avg_logFC” value was −0.5584 and the “Ppp1r3b avg_logFC” value was −0.4027. For the same molecule, the “Ppp1r3b pct.1” value was 0.098, the “Ppp2r5a avg_logFC” value was −0.2605 and the “Ppp2r5a pct.1” value was 0.43. The “Prdx1 avg_logFC” value was −0.5292, the “Prdx4 avg_logFC” value was −0.4176 and the “Prdx4 pct.1” value was 0.372. For the same molecule, the “Proc A6logFC” value was −0.2707, the “Prpf19 A6logFC” value was 0.2588 and the “Prpf19 avg_logFC” value was 0.2588. The “Prpf19 pct.1” value was 0.432, the “Prrc2c avg_logFC” value was 0.4393 and the “Prrc2c pct.1” value was 0.415. For the same molecule, the “Psap A6logFC” value was 0.2578, the “Psap avg_logFC” value was 0.2578 and the “Psap pct.1” value was 0.556. For the same molecule, the “Psat1 avg_logFC” value was 0.3012, the “Psen2 avg_logFC” value was −0.9474 and the “Psma1 A6logFC” value was −0.2567. The “Psma1 avg_logFC” value was −0.2567, the “Psma1 pct.1” value was 0.353 and the “Psma6 A6logFC” value was −0.3035. The “Psma6 avg_logFC” value was −0.3035, the “Psma6 pct.1” value was 0.501 and the “Psme1 avg_logFC” value was −0.394. For the same molecule, the “Psme1 pct.1” value was 0.26, the “Ptpmt1 A6logFC” value was −0.256 and the “Ptpmt1 avg_logFC” value was −0.256. For the same molecule, the “Ptpmt1 pct.1” value was 0.372, the “Ptpn1 avg_logFC” value was 0.4163 and the “Ptpn1 pct.1” value was 0.353. For the same molecule, the “Ptpn11 A6logFC” value was 0.2778, the “Ptpn11 avg_logFC” value was 0.2778 and the “Ptpn11 pct.1” value was 0.37. For the same molecule, the “Ptprc avg_logFC” value was 0.4165, the “Pvrl2 A6logFC” value was −0.2613 and the “Qdpr avg_logFC” value was −0.5236. The “Qdpr pct.1” value was 0.606, the “Rab6a A6logFC” value was 0.3234 and the “Rabac1 A6logFC” value was −0.266. The “Rabac1 avg_logFC” value was −0.266, the “Rabac1 pct.1” value was 0.346 and the “Rad54l2 avg_logFC” value was 0.3887. For the same molecule, the “Rad54l2 pct.1” value was 0.325, the “Ranbp2 avg_logFC” value was 0.5985 and the “Rangap1 A6logFC” value was 0.2962. The “Rangap1 avg_logFC” value was 0.2962, the “Rangap1 pct.1” value was 0.387 and the “Rap1b A6logFC” value was 0.3408. The “Rap1b avg_logFC” value was 0.3408, the “Rap1b pct.1” value was 0.406 and the “Rarres2 avg_logFC” value was −0.5522. The “Rassf3 A6logFC” value was 0.2912, the “Rassf3 avg_logFC” value was 0.2912 and the “Rassf3 pct.1” value was 0.422. For the same molecule, the “Rbm25 A6logFC” value was 0.4215, the “Rbm39 A6logFC” value was 0.2657 and the “Rbm39 avg_logFC” value was 0.2657. For the same molecule, the “Rbm39 pct.1” value was 0.506, the “Rcan1 avg_logFC” value was 0.7073 and the “Rdh7 avg_logFC” value was −0.4186. The “Reep3 A6logFC” value was 0.409, the “Reep3 avg_logFC” value was 0.409 and the “Reep3 pct.1” value was 0.535. For the same molecule, the “Rell1 avg_logFC” value was 0.5912, the “Retnlg avg_logFC” value was 0.3751 and the “Retsat avg_logFC” value was 0.4911. For the same molecule, the “Rgs2 avg_logFC” value was 0.3957, the “Rgs2 pct.1” value was 0.138 and the “Riok3 A6logFC” value was 0.2916. For the same molecule, the “Riok3 avg_logFC” value was 0.2916, the “Riok3 pct.1” value was 0.43 and the “Rmnd5a A6logFC” value was 0.3189. The “Rmnd5a avg_logFC” value was 0.3189, the “Rmnd5a pct.1” value was 0.47 and the “Rnase4 avg_logFC” value was −1.049. For the same molecule, the “Rnaseh2c A6logFC” value was −0.3257, the “Rnd3 avg_logFC” value was 0.3655 and the “Rnd3 pct.1” value was 0.284. The “Rnf144a avg_logFC” value was 0.313, the “Rnf144a pct.1” value was 0.177 and the “Rnf169 A6logFC” value was 0.334. The “Rnf169 avg_logFC” value was 0.334, the “Rnf169 pct.1” value was 0.315 and the “Rock1 A6logFC” value was 0.2608. The “Rock1 avg_logFC” value was 0.2608, the “Rock1 pct.1” value was 0.413 and the “Rock2 avg_logFC” value was 0.5941. The “Romo1 A6logFC” value was −0.3359, the “Rora avg_logFC” value was 0.6444 and the “Rpl13a avg_logFC” value was −0.3815. For the same molecule, the “Rpl13a pct.1” value was 0.704, the “Rpl13 avg_logFC” value was −0.2988 and the “Rpl13 pct.1” value was 0.294. The “Rpl14 A6logFC” value was −0.2776, the “Rpl14 avg_logFC” value was −0.2776 and the “Rpl14 pct.1” value was 0.372. The “Rpl34 A6logFC” value was −0.2976, the “Rpl36al avg_logFC” value was −0.4755 and the “Rpl36al pct.1” value was 0.284. For the same molecule, the “Rplp1 avg_logFC” value was −0.5047, the “Rplp1 pct.1” value was 0.449 and the “Rps15 avg_logFC” value was −0.4552. The “Rps15 pct.1” value was 0.301, the “Rps18 avg_logFC” value was −0.4885 and the “Rps18 pct.1” value was 0.337. The “Rps24 A6logFC” value was −0.2625, the “Rps24 avg_logFC” value was −0.2625 and the “Rps24 pct.1” value was 0.453. The “Rps27l avg_logFC” value was −0.8659, the “Rraga A6logFC” value was 0.2626 and the “Rraga avg_logFC” value was 0.2626. The “Rraga pct.1” value was 0.337, the “Rsl1d1 A6logFC” value was 0.3461 and the “S100a8 avg_logFC” value was 1.128. For the same molecule, the “S100a9 avg_logFC” value was 1.343, the “Saa4 avg_logFC” value was −0.571 and the “Sat1 avg_logFC” value was 0.6887. For the same molecule, the “Sc5d avg_logFC” value was −0.5009, the “Sc5d pct.1” value was 0.58 and the “Scaf11 A6logFC” value was 0.3598. The “Sco2 avg_logFC” value was −0.2605, the “Sco2 pct.1” value was 0.353 and the “Scp2 avg_logFC” value was −0.5191. The “Sdad1 avg_logFC” value was 0.3124, the “Sdad1 pct.1” value was 0.289 and the “Sdc3 pct.1” value was 0.103. For the same molecule, the “Sdc4 avg_logFC” value was 0.6196, the “Sdr9c7 A6logFC” value was −0.26 and the “Sec61b A6logFC” value was −0.2903. The “Sec1412 avg_logFC” value was −0.7897, the “Selenbp1 avg_logFC” value was −0.4937 and the “Selenbp1 pct.1” value was 0.401. The “Selenbp2 avg_logFC” value was −1.009, the “Selo A6logFC” value was −0.2574 and the “Selo avg_logFC” value was −0.2574. For the same molecule, the “Selo pct.1” value was 0.217, the “Sema4g A6logFC” value was −0.2505 and the “Sema4g avg_logFC” value was −0.2505. For the same molecule, the “Sema4g pct.1” value was 0.27, the “Serbp1 A6logFC” value was 0.3227 and the “Serbp1 avg_logFC” value was 0.3227. For the same molecule, the “Serbp1 pct.1” value was 0.659, the “Serpina1a avg_logFC” value was −0.3785 and the “Serpina1e avg_logFC” value was −0.2684. The “Serpina1e pct.1” value was 0.99, the “Serpina3m avg_logFC” value was 0.9674 and the “Serpina3n avg_logFC” value was 0.8483. For the same molecule, the “Serpina12 avg_logFC” value was −0.4534, the “Serpina12 pct.1” value was 0.232 and the “Serpina1d avg_logFC” value was −0.289. The “Serpina1d pct.1” value was 0.926, the “Sf3b1 A6logFC” value was 0.2888 and the “Sf3b1 avg_logFC” value was 0.2888. The “Sf3b1 pct.1” value was 0.508, the “Sgk1 A6logFC” value was 0.2843 and the “Shmt1 avg_logFC” value was −0.3932. For the same molecule, the “Shmt1 pct.1” value was 0.339, the “Sigmar1 A6logFC” value was −0.3055 and the “Slc4a4 avg_logFC” value was 0.4203. The “Slc4a4 pct.1” value was 0.513, the “Slc10a2 avg_logFC” value was 0.299 and the “Slc10a2 pct.1” value was 0.255. The “Slc16a2 A6logFC” value was −0.252, the “Slc16a2 avg_logFC” value was −0.252 and the “Slc16a2 pct.1” value was 0.255. The “Slc16a6 avg_logFC” value was 0.9114, the “Slc16a10 A6logFC” value was −0.2548 and the “Slc16a10 avg_logFC” value was −0.2548. For the same molecule, the “Slc16a10 pct.1” value was 0.196, the “Slc20a1 avg_logFC” value was 0.3572 and the “Slc20a1 pct.1” value was 0.284. For the same molecule, the “Slc22a1 avg_logFC” value was −0.7979.
